Data published in US20020169101A1, “Treatment of sexual dysfunction” (priority 1999, published 2002).
Where two headings read alike, the source gives them in different places.

Legend:
[1] = target: T1, human NMB receptor (BB1) (Homo sapiens, UniProt P28336); experiment: BB1 binding assay ([125I][Tyr4]bombesin displacement, CHO-K1 membranes)
T1 construct: expressed in transfected cells; membranes prepared from the cells
Method: (§1) In the following experiments, measurement of BB1 and BB2 binding was as follows. CHO-K1 cells stably expressing cloned human NMB (for (BB1 assay) and GRP receptors (for BB2 assay) were routinely grown in Ham's F12 culture medium supplemented with 10% foetal calf serum and 2 mM glutamine. For binding experiments, cells were harvested by trypsinization, and stored frozen at −70° C. in Ham's F12 culture medium containing 5% DMSO until required. On the day of use, cells were thawed rapidly, diluted with an excess of culture medium, and centrifuged for 5 minutes at 2000 g. Cells were resuspended in 50 mM Tris-HCl assay buffer (pH 7.4 at 21° C., containing 0.02% BSA, 40 μg/mL bacitracin, 2 μg/mL chymostatin, 4 μg/mL leupeptin, and 2 μM phosphoramidon), counted, and polytronned (setting 5, 10 sec) before centrifuging for 10 minutes at 28,000 g. The final pellet was resuspended in assay buffer to a final cell concentration of 1.5×10^5/mL. For binding assays, […] aliquots of membranes were incubated with [^125I][Tyr^4]bombesin (<0.1 nM) in the presence and absence of test compounds (final assay volume 250 μL) for 60 minutes and 90 minutes for NMB and GRP receptors, respectively. Nonspecific binding was defined by 1 μM bombesin. Assays were terminated by rapid filtration under vacuum onto Whatman GF/C filters presoaked in 0.2% PEI for >2 hours, and washed 50 mM Tris-HCl (pH 6.9 at 21° C.; 6×1 mL). Radioactivity bound was determined using a gamma counter.
(§2) All competition data was analysed using nonlinear regression utilizing iterative curve-plotting procedures in Prism® (GraphPad Software Inc., San Diego, USA). IC50 values were corrected to Ki values using the Cheng-Prusoff equation (Cheng Y., Prusoff W. H., Biochem. Pharmacol. 22: 3099-3108, 1973). obtained are listed in Table 1.

[2] = target: T2, human GRP receptor (BB2) (Homo sapiens, UniProt P30550); experiment: BB2 binding assay ([125I][Tyr4]bombesin displacement, CHO-K1 membranes)
T2 construct: expressed in transfected cells; membranes prepared from the cells
Method: as §1, §2

[3] = Table 3, N-acyl derivatives of Intermediate III-7
[4] = second 'TABLE 4', N-terminal urethane derivatives of Intermediate III-7

T2 sequence (P30550 whole entry): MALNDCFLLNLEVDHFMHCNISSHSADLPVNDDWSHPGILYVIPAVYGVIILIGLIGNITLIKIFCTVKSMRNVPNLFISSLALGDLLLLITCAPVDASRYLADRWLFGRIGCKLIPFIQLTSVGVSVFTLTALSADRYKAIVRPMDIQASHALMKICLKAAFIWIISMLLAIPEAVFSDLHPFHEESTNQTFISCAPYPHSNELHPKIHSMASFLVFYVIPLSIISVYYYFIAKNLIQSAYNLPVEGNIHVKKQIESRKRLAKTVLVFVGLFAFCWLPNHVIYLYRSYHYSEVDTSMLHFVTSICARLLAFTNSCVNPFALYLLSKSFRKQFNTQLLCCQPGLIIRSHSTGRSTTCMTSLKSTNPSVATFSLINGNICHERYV
T1 sequence (P28336 whole entry): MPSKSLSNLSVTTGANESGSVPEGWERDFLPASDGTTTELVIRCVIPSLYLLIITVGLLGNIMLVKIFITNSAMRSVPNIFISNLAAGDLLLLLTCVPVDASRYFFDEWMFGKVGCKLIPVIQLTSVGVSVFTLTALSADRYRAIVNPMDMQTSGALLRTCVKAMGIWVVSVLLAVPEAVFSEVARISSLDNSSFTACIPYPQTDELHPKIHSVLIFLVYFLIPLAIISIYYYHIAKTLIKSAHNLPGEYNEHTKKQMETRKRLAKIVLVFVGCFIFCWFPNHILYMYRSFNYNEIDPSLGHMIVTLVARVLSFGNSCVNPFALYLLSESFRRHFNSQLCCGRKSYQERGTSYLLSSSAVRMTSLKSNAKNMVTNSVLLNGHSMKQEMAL

Compound	IC50 [1] [nM]	other results
C[C@@](Cc1c[nH]c2ccccc12)(NS(=O)(=O)Cc1ccccc1)C(=O)NCC1(c2ccccn2)CCCCC1 [Example 111, (S)-3-(1H-indol-3-yl)-2-methyl-2-phenylmethanesulfonylamino-N-(1-pyridin-2-yl-cyclohexylmethyl)-propionamide]	186	IC50 [2]: > 10000 nM
COc1ccccc1CC(=O)N[C@@](C)(Cc1c[nH]c2ccccc12)C(=O)NCC1(c2ccccn2)CCCCC1 [Example 85, (S)-3-(1H-Indol-3-yl)-2-[2-(2-methoxy-phenyl)-ethanoylamino]-2-methyl-N-(1-pyridin-2-yl-cyclohexylmethyl)-propionamide]		IC50 [1, 3]: 1330 nM; IC50 [2, 3]: 2480 nM
CCOc1cccc(COC(=O)N[C@@](C)(Cc2c[nH]c3ccccc23)C(=O)NCC2(c3ccccn3)CCCCC2)c1 [Example 102, {(S)-2-(1H-Indol-3-yl)-1-methyl-1-[(1-pyridin-2-yl-cyclohexylmethyl)-carbamoyl]-ethyl}-carbamic acid 3-ethoxy-benzyl ester]		IC50 [1, 4]: 1060 nM; IC50 [2, 4]: > 10000 nM
Cc1ccc(CC(=O)N[C@@](C)(Cc2c[nH]c3ccccc23)C(=O)NCC2(c3ccccn3)CCCCC2)cc1 [Example 50, (S)-3-(1H-Indol-3-yl)-2-methyl-N-(1-pyridin-2-yl-cyclohexylmethyl)-2-(2-p-tolyl-ethanoylamino)-propionamide]		IC50 [1, 3]: 944 nM; IC50 [2, 3]: > 10000 nM
CC(Cc1c[nH]c2ccccc12)(NS(=O)(=O)c1cc(Cl)sc1Cl)C(=O)NCC1(c2ccccn2)CCCCC1 (centres unmarked) [Example 157]		IC50 [2]: > 10000 nM
C[C@@](Cc1c[nH]c2ccccc12)(NC(=O)c1cc2ccccc2cn1)C(=O)NCC1(c2ccccn2)CCCCC1 [Example 77, Isoquinoline-3-carboxylic acid {(S)-2-(1H-indol-3-yl)-1-methyl-1-[(1-pyridin-2-yl-cyclohexylmethyl)-carbamoyl]-ethyl}-amide]		IC50 [1, 3]: 1360 nM
C[C@@](Cc1c[nH]c2ccccc12)(NS(=O)(=O)c1ccccc1C(F)(F)F)C(=O)NCC1(c2ccccn2)CCCCC1 [Example 129, (S)-3-(1H-indol-3-yl)-2-methyl-N-(1-pyridin-2-yl-cyclohexylmethyl)-2-(2-trifluoromethyl-benzenesulfonylamino)-propionamide]	134	
Cn1cccc1C(=O)N[C@@](C)(Cc1c[nH]c2ccccc12)C(=O)NCC1(c2ccccn2)CCCCC1 [Example 63, 1-Methyl-1H-pyrrole-2-carboxylic acid {(S)-2-(1H-indol-3-yl)-1-methyl-1-[(1-pyridin-2-yl-cyclohexylmethyl)-carbamoyl]-ethyl}-amide]		IC50 [1, 3]: 4820 nM
C[C@@](Cc1c[nH]c2ccccc12)(NS(=O)(=O)c1ccc2ccccc2c1)C(=O)NCC1(c2ccccn2)CCCCC1 [Example 118]	322	
C[C@@](Cc1c[nH]c2ccccc12)(NS(=O)(=O)c1ccc(C(F)(F)F)cc1)C(=O)NCC1(c2ccccn2)CCCCC1 [Example 127]	553	
C[C@@](Cc1c[nH]c2ccccc12)(NS(=O)(=O)c1ccc(Cl)cc1[N+](=O)[O-])C(=O)NCC1(c2ccccn2)CCCCC1 [Example 149]	513	
Cc1cc(S(=O)(=O)N[C@@](C)(Cc2c[nH]c3ccccc23)C(=O)NCC2(c3ccccn3)CCCCC2)c(Cl)cc1Cl [Example 165]	172	
COc1ccc(S(=O)(=O)N[C@@](C)(Cc2c[nH]c3ccccc23)C(=O)NCC2(c3ccccn3)CCCCC2)cc1OC [Example 132]	608	
C[C@@](Cc1c[nH]c2ccccc12)(NS(=O)(=O)c1ccc(OC(F)(F)F)cc1)C(=O)NCC1(c2ccccn2)CCCCC1 [Example 151]	635	
C[C@@](Cc1c[nH]c2ccccc12)(NC(=O)c1cnc2ccccc2n1)C(=O)NCC1(c2ccccn2)CCCCC1 [Example 78, Quinoxaline-2-carboxyiic acid {(S)-2-(1H-indol-3-yl)-1-methyl-1-[(1-pyridin-2-yl-cyclohexylmethyl)-carbamoyl]-ethyl}-amide]		IC50 [1, 3]: 1420 nM
C[C@@](Cc1c[nH]c2ccccc12)(NC(=O)c1ccc2[nH]nnc2c1)C(=O)NCC1(c2ccccn2)CCCCC1 [Example 73, 1H-Benzotriazole-5-carboxylic acid {(S)-2-(1H-indol-3-yl)-1-methyl-1-[(1-pyridin-2-yl-cyclohexylmethyl)-carbamoyl]-ethyl}-amide]		IC50 [1, 3]: 3170 nM
C[C@@](Cc1c[nH]c2ccccc12)(NS(=O)(=O)Cc1ccccc1[N+](=O)[O-])C(=O)NCC1(c2ccccn2)CCCCC1 [Example 142]	430	
Cc1ccc(C(=O)N[C@@](C)(Cc2c[nH]c3ccccc23)C(=O)NCC2(c3ccccn3)CCCCC2)cc1 [Example 33, N—{(S)-2-(1H-Indol-3-yl)-1-methyl-1-[(1-pyridin-2-yl-cyclohexylmethyl)-carbamoyl]-ethyl}-4-methyl-benzamide]		IC50 [2, 3]: > 10000 nM
COc1cc(C)ccc1S(=O)(=O)N[C@@](C)(Cc1c[nH]c2ccccc12)C(=O)NCC1(c2ccccn2)CCCCC1 [Example 159]	445	

Compound	IC50 [1] [nM]	other results
C[C@@](Cc1c[nH]c2ccccc12)(NS(=O)(=O)c1cccc2nonc12)C(=O)NCC1(c2ccccn2)CCCCC1 [Example 139]	507	
COC(=O)c1ccccc1S(=O)(=O)N[C@@](C)(Cc1c[nH]c2ccccc12)C(=O)NCC1(c2ccccn2)CCCCC1 [Example 155]	242	
C[C@@](Cc1c[nH]c2ccccc12)(NS(=O)(=O)c1cc([N+](=O)[O-])ccc1Cl)C(=O)NCC1(c2ccccn2)CCCCC1 [Example 147]	374	
CN(C)c1cccc2c(S(=O)(=O)N[C@@](C)(Cc3c[nH]c4ccccc34)C(=O)NCC3(c4ccccn4)CCCCC3)cccc12 [Example 117]	1300	
C[C@@](Cc1c[nH]c2ccccc12)(NS(=O)(=O)c1ccc(Cl)s1)C(=O)NCC1(c2ccccn2)CCCCC1 [Example 128]	404	
C[C@@](Cc1c[nH]c2ccccc12)(NS(=O)(=O)c1ccc([N+](=O)[O-])cc1)C(=O)NCC1(c2ccccn2)CCCCC1 [Example 123]	515	
C[C@@](Cc1c[nH]c2ccccc12)(NC(=O)c1ccoc1)C(=O)NCC1(c2ccccn2)CCCCC1 [Example 59]		IC50 [1, 3]: 1200 nM
Cc1ccc(S(=O)(=O)N[C@@](C)(Cc2c[nH]c3ccccc23)C(=O)NCC2(c3ccccn3)CCCCC2)cc1 [Example 112]	557	
C[C@@](Cc1c[nH]c2ccccc12)(NC(=O)c1ccccc1)C(=O)NCC1(c2ccccn2)CCCCC1 [Example 32, N—{(S)-2-(1H-Indol-3-yl)-1-methyl-1-[(1-pyridin-2-yl-cyclohexylmethyl)-carbamoyl]-ethyl}-benzamide]		IC50 [2, 3]: > 10000 nM
C[C@@](Cc1c[nH]c2ccccc12)(NCc1cc2ccccc2o1)C(=O)NCC1(c2ccccn2)CCCCC1 [Example 26]		Ki ([1]; Table 1, human NMB receptor binding affinity, Ki from IC50 by Cheng-Prusoff, read-out: NMB Ki): 2400 nM
C[C@@](Cc1c[nH]c2ccccc12)(NS(=O)(=O)c1cnc(Cl)c(Br)c1)C(=O)NCC1(c2ccccn2)CCCCC1 [Example 161]	187	
C[C@@](Cc1c[nH]c2ccccc12)(NC(=O)OCc1ccc(Cl)cc1Cl)C(=O)NCC1(c2ccccn2)CCCCC1 [Example 104, {(S)-2-(1H-Indol-3-y1)-1-methyl-1-[(1-pyridin-2-yl-cyclohexylmethyl)-carbamoyl]-ethyl}-carbamic acid 2,4-dichloro-benzyl ester]		IC50 [1, 4]: 450 nM
C[C@@](Cc1c[nH]c2ccccc12)(NS(=O)(=O)c1ccc(S(C)(=O)=O)cc1)C(=O)NCC1(c2ccccn2)CCCCC1 [Example 163]	1040	
Dimethylamino-N—{(S)-2-(1H-indol-3-yl)-1-methyl-1-[(1-pyridin-2-yl-cyclohexyl-methyl)-carbamoyl]-ethyl}-benzamide [Example 42]		IC50 [2, 3]: > 10000 nM
C[C@@](Cc1c[nH]c2ccccc12)(NS(=O)(=O)c1cccc2nsnc12)C(=O)NCC1(c2ccccn2)CCCCC1 [Example 137]	256	
Cc1nc(S(=O)(=O)N[C@@](C)(Cc2c[nH]c3ccccc23)C(=O)NCC2(c3ccccn3)CCCCC2)cn1C [Example 144]	2480	
C[C@@](Cc1c[nH]c2ccccc12)(NC(=O)OCc1ccc2ncccc2c1)C(=O)NCC1(c2ccccn2)CCCCC1 [Example 110, {(S)-2-(1H-Indol-3-y1)-1-methyl-1-[(1-pyridin-2-yl-cyclohexylmethyl)-carbamoyl]-ethyl}-carbamic acid quinolin-6-ylmethyl ester]		IC50 [1, 4]: 171 nM
CCCCc1ccc(S(=O)(=O)N[C@@](C)(Cc2c[nH]c3ccccc23)C(=O)NCC2(c3ccccn3)CCCCC2)cc1 [Example 168]	492	
